Article PMC4821163 (Organic letters, 2016)
pIC50: −log10 of the molar value.

Key:
cancer cell lines = settings: several cancer cell lines; cited from earlier work
NIH/3T3 = format: cell-based; settings: read-out: Cell cytotoxicity IC50; NIH/3T3 nontumor cell line
HeLa = format: cell-based; settings: for Selectivity index (SI) over MCF-10A cells: IC50 MCF-10A divided by IC50 HeLa
MDA-MB-231 = format: cell-based; settings: IC50 MCF-10A divided by IC50 MDA-MB-231
Jurkat = format: cell-based; settings: for Selectivity index (SI) over MCF-10A cells: IC50 MCF-10A divided by IC50 Jurkat
U937 = format: cell-based; settings: for Selectivity index (SI) over MCF-10A cells: IC50 MCF-10A divided by IC50 U937
MCF7 = format: cell-based; settings: IC50 MCF-10A divided by IC50 MCF7
MCF-10A = format: cell-based; settings: for Selectivity index (SI), overall statement: tested cancer cell lines, MCF-10A as reference nontumor cell line

C/C=C(\C)C(=O)O[C@@H]1[C@@H](O)[C@@H]2O[C@H]3[C@H](O[C@@H](CCCCC)CCCCCCC(=O)CCC(=O)OC[C@@H](O2)[C@H]1OC(=O)/C=C/c1ccccc1)O[C@H](C)[C@H](OC(C)=O)[C@@H]3O [ipomoeassin F]
IC50 values against cancer cell growth, in words (cancer cell lines): single-digit nanomolar range
pIC50 (NIH/3T3): 7.77
Selectivity index (SI) over MCF-10A cells (HeLa): 0.33
pIC50 (HeLa; read-out: Cell cytotoxicity IC50, HeLa cells): 7.79
Selectivity index (SI) over MCF-10A cells (MDA-MB-231): 0.83
Selectivity index (SI) over MCF-10A cells (Jurkat): 0.89
pIC50 (Jurkat; read-out: Cell cytotoxicity IC50, Jurkat cells): 8.21
Selectivity index (SI) over MCF-10A cells (U937): 1
pIC50 (U937; read-out: Cell cytotoxicity IC50, U937 cells): 8.27
Selectivity index (SI) over MCF-10A cells (MCF7): 0.12
pIC50 (MCF-10A; read-out: Cell cytotoxicity IC50, MCF-10A nontumor cell line): 8.27
Selectivity index (SI), overall statement (MCF-10A): < 1

CC(=O)O[C@H]1C(=O)[C@@]2(C)[C@H]([C@H](OC(=O)c3ccccc3)[C@]3(O)C[C@H](OC(=O)[C@H](O)[C@@H](NC(=O)c4ccccc4)c4ccccc4)C(C)=C1C3(C)C)[C@]1(OC(C)=O)CO[C@@H]1C[C@@H]2O [paclitaxel]
Selectivity index (SI) over MCF-10A cells (HeLa): 25.6
Selectivity index (SI) over MCF-10A cells (MDA-MB-231): 8.04
Selectivity index (SI) over MCF-10A cells (Jurkat): 14.6
Selectivity index (SI) over MCF-10A cells (U937): 15.2
Selectivity index (SI) over MCF-10A cells (MCF7): 3.73
Selectivity index (SI), overall statement (MCF-10A): good selectivity in general
